Patent US7235532B2, “Angiogenic agents and their uses” (Centre National de la Recherche Scientfique, priority 2000, dated 2007)

Experiments:
[1] = system: chick embryo chorioallantoic membrane; assay: chick embryo chorioallantoic membrane (CAM) vascularization; format: in vivo
Experimental: FIGS. 2a, 2b and 2c: Effect of AcSDKP (SEQ ID NO: 1) and of analogues thereof on the vascularization of the chick embryo chorioallantoic membrane (CAM). FIG. 2A discloses SEQ ID NOS: 1 and 27, respectively, in order of appearance.
The following experiments were carried out on the chick embryo chorioallantoic membrane experimental model and the activity of AcSDKP (SEQ ID NO: 1) and of analogues thereof was tested on this model. […] The increase in the density of vascularization varies depending on the dose studied, with a maximum effect for AcSDKP (SEQ ID NO: 1) and AcSDKP-NH2 (SEQ ID NO: 27) at concentrations of between 10^−9 M and 10^−7 M (FIGS. 2a, 2b and 2c).

[2] = system: HUVEC human endothelial cells; assay: adhesion of HUVEC to extracellular matrix components, preliminary experiments; format: cell-based; details: compared with marrow cell results
Description: It is clearly established that these interactions between endothelial cells and the extracellular matrix are determinant for the neovascularization and are involved at various steps of angiogenesis. Specifically, the extracellular matrix influences the proliferation and the migration of vascular endothelial cells, and also their ability to differentiate and to organize into capillaries in order to form new functional vessels suited to their tissue microenvironment.

Sprague-Dawley rats = assay: pedicled ventral skin flap model; format: in vivo, rat; details: 5 μg/kg/injection s.c., after surgery then 5 times at 12 hour intervals
Description: Given the ability of angiogenic factors to stimulate, in vivo, the formation of new vessels in lesioned regions which are characterized by a deficiency in vascularization, we studied the effectiveness of AcSDKP (SEQ ID NO: 1) in promoting tissue lesion repair, using a skin flap model. In fact, the distal necrosis of skin flaps generally results from rupturing of the vascular network and therefore from an insufficiency of arterial flow, which poses considerable problems in the fields of plastic and reconstructive surgery.
Pedicled ventral skin flaps (6×6 cm) (left inguinal pedicle) were made in the Sprague-Dawley rats.
AcSDKP (SEQ ID NO: 1) was administered at the dose of 5 μg/kg/ injection (250 μl/injection) immediately after the surgical intervention, and then again 5 times at 12 hour intervals. […] From a macroscopic point of view, the decrease in necrosis is accompanied by the increase in the density of the vascularization over the internal surface of the flaps.

[3] = system: human umbilical cord vein endothelial cells (HUVEC); assay: growth of human umbilical cord vein endothelial cells, in vitro; format: cell-based
Description: (§1) FIGS. 1a, 1b and 1c: AcSDKP (SEQ ID NO: 1) stimulates the growth of bovine (BBC) and human (HUVEC and EA.hy926) endothelial cells, in vitro.
(§2) The mitogenic effect of AcSDKP (SEQ ID NO: 1) manifests itself at concentrations ranging between 10^−6 and 10^−11 M, with a maximum for 10^−9 M.

[4] = system: endothelial cells originating from bovine brain capillaries (BBC); assay: growth of endothelial cells originating from bovine brain capillaries, in vitro; format: cell-based
Description: as §1, §2

total marrow cells = assay: adhesion of marrow cells to components of the extracellular matrix, in vitro; format: cell-based; details: fibronectin, collagen IV and laminin
Description: The optimum concentration of AcSDKP (SEQ ID NO: 1) in this type of model is between 10^−6 and 10^−8 M.

[5] = system: endothelial cells (EA.hy926); assay: formation of vascular tubes in Matrigel in vitro; format: cell-based, human; details: 6 hours exposure
Experimental: FIG. 3: Effect of AcSDKP (SEQ ID NO: 1) on the formation of vascular tubes, in vitro, by endothelial cells (EA.hy926) in Matrigel.
The maximum stimulations, corresponding to an increase of 60% and 58%, respectively, were observed after exposure of the cells to the tetrapeptide for 6 hours.

normal rats = assay: angiography of abdominal walls after injection into abdominal muscle; format: in vivo, rat
Experimental: In these experiments, AcSDKP (SEQ ID NO: 1) was injected into the abdominal muscle in normal rats (treatment twice a day for […]). […] It should be emphasized that this effect remains over time (observations made one month after the start of treatment).

[6] = system: immortalized HUVEC cell line (EA.hy926); assay: growth of immortalized HUVEC cell line, in vitro; format: cell-based, human
Description: as §1, §2

Sprague-Dawley rat = assay: vascular invasion in vivo of Matrigel placed under the skin
Description: In vivo, AcSDKP (SEQ ID NO: 1) induces, in a dose-dependent manner, the vascular invasion of Matrigel placed under the skin of the animal (Sprague-Dawley rat). In this experiment, AcSDKP (SEQ ID NO: 1) was mixed with the Matrigel before implantation. Seven days later, the animals were sacrificed and the Matrigel samples were taken and fixed in formol, and were the subject of a histological study. […] For the quantification, the vascular sections were counted on 10 consecutive fields (surface area =32 mm^2) from the richest zone.

CH3CO-Ser-Asp-Lys-Pro-NH2 [AcSDKP-NH2]
neovascularization of CAM [1]: significantly induced neovascularization

CH3CO-Ser-Asp-Lys-Pro-OH (Ac-SDKP-OH) [AcSDKP, tetrapeptide acetyl-Ser-Asp-Lys-Pro]
adhesion to extracellular matrix components [2]: Comparable results
increase in survival of the flaps compared to the controls (Sprague-Dawley rats): 10%
concentration of maximum mitogenic effect [3]: 10^−9 M
growth of endothelial cells ([3]; in vitro): significantly stimulates the growth
concentration of maximum mitogenic effect [4]: 10^−9 M
growth of endothelial cells ([4]; in vitro): significantly stimulates the growth
adhesion of marrow cells to extracellular matrix components (total marrow cells): increases the adhesion
increase of total surface area of the vascular network compared to control (maximum stimulation) ([5]; 10^−9 M): 60%
increase of total surface area of the vascular network compared to control (maximum stimulation) ([5]; 10^−11 M): 58%
neovascularization of CAM [1]: significantly induced neovascularization
vascularization of abdominal walls (angiography) (normal rats; 5 μg/kg/injection into abdominal muscle, twice a day, sacrifice day 8): more developed vascularization
vascularization of abdominal walls (angiography) (normal rats; 50 μg/kg/injection into abdominal muscle): No significant modification of the vascularization
concentration of maximum mitogenic effect ([6]; EA.hy926): 10^−9 M
growth of endothelial cells ([6]; EA.hy926, in vitro): significantly stimulates the growth
Number of vessels (% increase compared to control) (Sprague-Dawley rat; 10^−5 M, Exp. 1): 60%
Number of vessels (% increase compared to control) (Sprague-Dawley rat; 10^−5 M, Exp. 2): 185%
Number of vessels (% increase compared to control) (Sprague-Dawley rat; 10^−6 M, Exp. 2): 121%
Number of vessels (% increase compared to control) (Sprague-Dawley rat; 10^−7 M, Exp. 1): 294%
Number of vessels (% increase compared to control) (Sprague-Dawley rat; 10^−7 M, Exp. 2): 118%
Number of vessels (% increase compared to control) (Sprague-Dawley rat; 10^−7 M, Exp. 3): 139%
Number of vessels (% increase compared to control) (Sprague-Dawley rat; 10^−8 M, Exp. 2): 223%
Number of vessels (% increase compared to control) (Sprague-Dawley rat; 10^−9 M, Exp. 1): 108%
Number of vessels (% increase compared to control) (Sprague-Dawley rat; 10^−9 M, Exp. 2): 61%
Number of vessels (% increase compared to control) (Sprague-Dawley rat; 10^−9 M, Exp. 3): 197%
vessels within the Matrigel compared to control Matrigel (Sprague-Dawley rat; mixed with Matrigel before implantation, 7 days): much greater number of vessels

FGFb: fibroblast growth factor used as comparison angiogenic factor
Number of vessels (% increase compared to control) (Sprague-Dawley rat; 50 ng/ml, Exp. 2): 297%
